Measurements as given in the supplement of paper PMC4862054.

Experiments:
Details in all cases: incubation time: 72 h
[1] = test system: BT-474; experiment: normalised response (% of control), CellTox Green; higher = less cell death (100 = DMSO, 0 = benzethonium chloride kill control)
In short: (§1)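 Values are normalised signals, each belonging to one concentration of the series. Breast cancer cells (20 µl suspension) were seeded into 384-well plates with compound at 5 concentrations in 10-fold steps over a compound-specific 10,000-fold range and incubated 72 h. Readouts were CellTox Green fluorescence (485/520 nm), then CellTiter-Glo luminescence after 10 min at room temperature, with each plate set to 0.1 % DMSO as 100 and a positive kill control as 0.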

[2] = test system: BT-549; experiment: as above
In short: as §1

[3] = test system: CAL-120; experiment: as above
In short: as §1

[4] = test system: CAL-148; experiment: as above
In short: as §1

[5] = test system: CAL-51; experiment: as above
In short: as §1

[6] = test system: CAL-85-1; experiment: as above
In short: as §1

[7] = test system: DU-4475; experiment: as above
In short: as §1

[8] = test system: HCC1143; experiment: as above
In short: as §1

[9] = test system: HCC1599; experiment: as above
In short: as §1

[10] = test system: HDQ-P1; experiment: as above
In short: as §1

[11] = test system: Hs578T; experiment: as above
In short: as §1

[12] = test system: MCF-10A; experiment: as above
In short: as §1

[13] = test system: MDA-MB-231; experiment: as above
In short: as §1

[14] = test system: MDA-MB-436; experiment: as above
In short: as §1

[15] = test system: MDA-MB-453; experiment: as above
In short: as §1

[16] = test system: MDA-MB-468; experiment: as above
In short: as §1

[17] = test system: MFM-223; experiment: as above
In short: as §1

[18] = test system: BT-474; experiment: normalised response (% of control), CellTiter-Glo; higher = more viable cells (100 = DMSO, 0 = benzethonium chloride kill control)
In short: as §1

[19] = test system: BT-549; experiment: as above
In short: as §1

[20] = test system: CAL-120; experiment: as above
In short: as §1

[21] = test system: CAL-148; experiment: as above
In short: as §1

[22] = test system: CAL-51; experiment: as above
In short: as §1

[23] = test system: CAL-85-1; experiment: as above
In short: as §1

[24] = test system: DU-4475; experiment: as above
In short: as §1

[25] = test system: HCC1143; experiment: as above
In short: as §1

[26] = test system: HCC1599; experiment: as above
In short: as §1

[27] = test system: HCC1937; experiment: as above
In short: as §1

[28] = test system: HDQ-P1; experiment: as above
In short: as §1

[29] = test system: Hs578T; experiment: as above
In short: as §1

[30] = test system: MCF-10A; experiment: as above
In short: as §1

[31] = test system: MDA-MB-231; experiment: as above
In short: as §1

[32] = test system: MDA-MB-436; experiment: as above
In short: as §1

[33] = test system: MDA-MB-453; experiment: as above
In short: as §1

[34] = test system: MDA-MB-468; experiment: as above
In short: as §1

[35] = test system: MFM-223; experiment: as above
In short: as §1

[36] = test system: SK-BR-3; experiment: as above
In short: as §1

[37] = test system: HCC1937; experiment: normalised response (% of control), CellTox Green; higher = less cell death (100 = DMSO, 0 = benzethonium chloride kill control)
In short: as §1

SMILES | normalised response [1] | normalised response [2] | normalised response [3] | normalised response [4] | normalised response [5] | normalised response [6] | normalised response [7] | normalised response [8] | normalised response [9] | normalised response [10] | normalised response [11] | normalised response [12] | normalised response [13] | normalised response [14] | normalised response [15] | normalised response [16] | normalised response [17] | normalised response [18] | normalised response [19] | normalised response [20] | normalised response [21] | normalised response [22] | normalised response [23] | normalised response [24] | normalised response [25] | normalised response [26] | normalised response [27] | normalised response [28] | normalised response [29] | normalised response [30] | normalised response [31] | normalised response [32] | normalised response [33] | normalised response [34] | normalised response [35] | normalised response [36] | normalised response [37]
Cc1ccc(C(=O)N(CCCN)[C@@H](c2oc3cc(Cl)ccc3c(=O)c2Cc2ccccc2)C(C)C)cc1 (10 nM) | 89.8% | 88% | 95.5% | 90.8% | 108% | 108% | 104% | 112% | 91.8% | 85.7% | 103% | 112% | 94.4% | 100% | 102% | 111% | 101% | 97.9% | 100% | 102% | 91.3% | 120% | 101% | 96.5% | 97.1% | 100% | 101% | 103% | 97.5% | 103% | 98.8% | 107% | 94.8% | 90.7% | 90.2% | 92.5% | 
NC(=O)Nc1cc(-c2cccc(F)c2)sc1C(=O)N[C@H]1CCCNC1 [AZD7762] (100 nM) | 102% | 105% | 99.8% | 102% | 104% | 36.1% | 100% | 82.6% | 103% | 103% | 64.1% |  | 105% | 83.7% | 101% | 50.3% | 101% | 93.7% | 73.4% | 95.9% | 97.9% | 111% | 59.5% | 98.4% | 96.8% | 78.5% | 97.2% | 95.2% | 93% | 91.6% | 88.7% | 92.4% | 83.2% | 99.3% | 104% | 99.6% | 125%
N.N.[Cl][Pt][Cl] [Cisplatin] (100 nM) | 99.2% | 80.2% | 109% | 105% | 103% | 121% | 107% | 109% | 97.4% | 118% | 85.4% | -220% | 74% | 107% | 110% | 94.6% | 82.7% | 102% | 90.4% | 101% | 90.7% | 116% | 96.2% | 90.2% | 104% | 98.7% | 102% | 107% | 102% | 1.72% | 98.7% | 101% | 94.9% | 98.5% | 96.6% | 99.2% | 
C[C@@H](Oc1cc(-c2cnn(C3CCNCC3)c2)cnc1N)c1c(Cl)ccc(F)c1Cl [Crizotinib] (100 nM) | 104% | 140% | 104% | 106% | 111% | 93.4% | 105% | 114% | 104% | 95.8% |  | 105% | 123% | 80.2% | 90.9% | 122% | 99.2% | 102% | 90.4% | 100% | 95.6% | 104% | 116% | 99.2% | 100% | 114% | 98.5% | 98.8% | 99.7% | 107% | 98.6% | 102% | 91.7% | 96.1% | 97.1% | 92.4% | 79.2%
COc1cc2ncnc(Nc3ccc(F)c(Cl)c3)c2cc1NC(=O)/C=C/CN1CCCCC1 [Dacomitinib] (100 nM) | 70.4% | 98.9% | 96.7% | 97.8% | 78.7% | 80.4% | 99.5% | 102% | 99.1% | 89.4% | 101% | 94.3% | 109% | 96.8% | 87.4% | 74.8% | 100% | 94% | 95.4% | 99.7% | 82% | 112% | 61% | 96.2% | 94.9% | 110% | 93.3% | 68.6% | 101% | 38.9% | 97.5% | 92.1% | 72.7% | 87.1% | 105% | 36.1% | 92.7%
